Data from patent US10293055B2, “Acetylenedicarboxyl linkers and their uses in specific conjugation of a cell-binding molecule” (SUZHOU M-CONJ BIOTECH CO., LTD., priority 2015, dated 2019).

What was measured:
[1] = system: human gastric carcinoma N-87 cell line tumor xenograft; details: one injection
Procedure: Five-week-old female BALB/c Nude mice (24 animals) were inoculated subcutaneously in the area under the right shoulder with N-87 carcinoma cells (5×10^6 cells/mouse) in 0.1 mL of serum-free medium. The tumors were grown for 8 days to an average size of 130 mm^3. The animals were then randomly divided into 4 groups (6 animals per group). The first group of mice served as the control group and was treated with the phosphate-buffered saline vehicle. […] Three dimensions of the tumor were measured every 4 days and the tumor volumes were calculated using the formula tumor volume=½ (length×width×height). The weight of the animals was also measured at the same time. A mouse was sacrificed when any one of the following criteria was met: (1) loss of body weight of more than 20% from pretreatment weight, (2) tumor volume larger than 1500 mm^3, (3) too sick to reach food and water, or (4) skin necrosis. A mouse was considered to be tumor-free if no tumor was palpable.

[2] = system: HL-60, a human promyelocytic leukemia cell line; details: read-out: IC50 (nM) HL60 cell (Ag+); MTT, 120 hours incubation
Procedure: (§1) The cell lines used in the cytotoxicity assays were HL-60, a human promyelocytic leukemia cell line; NCI-N87, a human gastric carcinoma cell line; BT-474, a human invasive ductal carcinoma cell line; and SKOV3, a human ovarian carcinoma cell line. For HL-60, NCI-N87, and BT-474 cells, the cells were grown in RPMI-1640 with 10% FBS. For SKOV3 cells, the cells were grown in McCoy's 5A Medium with 10% FBS. To run the assay, the cells (180 μl, 6000 cells) were added to each well in a 96-well plate and incubated for 24 hours at 37° C. with 5% CO2. Next, the cells were treated with test compounds (20 μl) at various concentrations in appropriate cell culture medium (total volume, 0.2 mL). The control wells contain cells and the medium but lack the test compounds. The plates were incubated for 120 hours at 37° C. with 5% CO2. MTT (5 mg/ml) was then added to the wells (20 μl) and the plates were incubated for 1.5 hr at 37° C. The medium was carefully removed and DMSO (180 μl) was added afterward. After it was shaken for 15 min, the absorbance was measured at 490 nm and 570 nm with a reference filter of 620 nm. The inhibition % was calculated according to the following equation: inhibition %=[1-(assay-blank)/(control-blank)]×100.

[3] = system: SKOV3, a human ovarian carcinoma cell line
Procedure: as §1

[4] = system: NCI-N87, a human gastric carcinoma cell line
Procedure: as §1

T-DM1
Animals with no tumor measurable ([1]; 5 mg/Kg intravenously, 6 animals per group): 2/6
Anti-tumor effect (FIG. 11) ([1]; 5 mg/kg, i.v.): did not completely eliminate the tumor
Duration of tumor growth inhibition ([1]; 5 mg/kg, i.v.): 44 days
IC50 [2]: > 15 nM
Specificity for SK-OV-3 cell ([3]; IC50 HL60 / IC50 SK-OV-3): over 78
IC50 ([3]; read-out: IC50 (nM) SK-OV-3 cell (Ag+), MTT, 120 hours incubation): 0.191 nM
Specificity for N87 cell ([4]; IC50 HL60 / IC50 N87): over 55
IC50 ([4]; read-out: IC50 (nM) N87 cell (Ag+), MTT, 120 hours incubation): 0.27 nM
